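Cells were grown in 96-well plates and exposed to each compound for 48 hours at five concentrations; endpoints were interpolated linearly between bracketing concentrations, or set to the highest concentration if not reached. GI50: concentration for 50% inhibition of growth.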 The source made the active and inactive calls. Cut-off read from the data, not from the text of the source: active = GI50 up to about 1.1 µM and inactive = higher.
Key:
Test in all cases: growth of human tumour cells (NCI), 48 h
BT-549 = system: BT-549
CAKI-1 = system: CAKI-1
COLO 205 = system: COLO 205
EKVX = system: EKVX
HOP-62 = system: HOP-62
KM12 = system: KM12
MCF7 = system: MCF7
MDA-MB-231 = system: MDA-MB-231
MDA-MB-435 = system: MDA-MB-435
MDA-N = system: MDA-N
Malme-3M = system: Malme-3M
NCI-H23 = system: NCI-H23
NCI-H460 = system: NCI-H460
OVCAR-3 = system: OVCAR-3
OVCAR-4 = system: OVCAR-4
SF-539 = system: SF-539
SK-MEL-28 = system: SK-MEL-28
SK-OV-3 = system: SK-OV-3
TK-10 = system: TK-10
UACC-62 = system: UACC-62

Measured: GI50

C[N+](C)(N)Cc1nc(-c2ccc(Cl)cc2)no1
inactive: BT-549 > 100 µM | CAKI-1 > 100 µM | COLO 205 > 100 µM | EKVX 37.7 µM | HOP-62 88.9 µM | KM12 > 100 µM | MCF7 > 100 µM | MDA-MB-231 > 100 µM | MDA-MB-435 > 100 µM | MDA-N > 100 µM | Malme-3M > 100 µM | NCI-H23 > 100 µM | NCI-H460 > 100 µM | OVCAR-3 > 100 µM | OVCAR-4 > 100 µM | SF-539 > 100 µM | SK-MEL-28 > 100 µM | SK-OV-3 > 100 µM | TK-10 > 100 µM | UACC-62 > 100 µM

COc1ccc(OC)c(CSc2ccc(OC)c(OC)c2)c1
inactive: BT-549 > 85.1 µM | CAKI-1 > 100 µM | COLO 205 > 100 µM | EKVX 62.4 µM | HOP-62 > 100 µM | KM12 > 100 µM | MCF7 > 100 µM | MDA-MB-231 > 93.5 µM | MDA-MB-435 > 79.4 µM | MDA-N > 77.6 µM | Malme-3M > 100 µM | NCI-H23 82 µM | NCI-H460 > 100 µM | OVCAR-3 > 63.5 µM | OVCAR-4 31.4 µM | SF-539 > 100 µM | SK-MEL-28 > 100 µM | SK-OV-3 > 100 µM | TK-10 > 100 µM | UACC-62 > 68.5 µM

COc1ccc(C(=C(Cl)c2ccccc2)c2ccc(OC)cc2)cc1
inactive: BT-549 > 100 µM | CAKI-1 > 100 µM | COLO 205 > 100 µM | EKVX > 100 µM | HOP-62 > 100 µM | KM12 > 100 µM | MCF7 > 100 µM | MDA-MB-231 > 100 µM | MDA-MB-435 > 100 µM | MDA-N > 100 µM | Malme-3M > 100 µM | NCI-H23 > 100 µM | NCI-H460 > 100 µM | OVCAR-3 > 100 µM | OVCAR-4 > 100 µM | SF-539 > 100 µM | SK-MEL-28 > 100 µM | SK-OV-3 > 100 µM | TK-10 > 100 µM | UACC-62 > 100 µM

O=c1c2ccccc2oc2c1ccc1ncccc12
inactive: BT-549 17.8 µM | CAKI-1 3.34 µM | COLO 205 17.3 µM | EKVX 8.2 µM | HOP-62 15 µM | KM12 24.2 µM | MCF7 8.55 µM | MDA-MB-231 26.8 µM | MDA-MB-435 25.7 µM | MDA-N 20 µM | Malme-3M 14.8 µM | NCI-H23 16.2 µM | NCI-H460 3.56 µM | OVCAR-3 18 µM | OVCAR-4 14.4 µM | SF-539 19.6 µM | SK-MEL-28 23 µM | SK-OV-3 6.38 µM | TK-10 6.73 µM | UACC-62 11 µM

COc1c(OC(C)C)c(OC(C)C)c2oc(=O)n3c2c1C(c1ccccc1-n1c(C)ccc1C)C=C3 (stereo not given)
inactive: BT-549 > 100 µM | CAKI-1 > 100 µM | COLO 205 > 100 µM | EKVX 17.6 µM | HOP-62 30.5 µM | KM12 22.9 µM | MCF7 33 µM | MDA-MB-231 45 µM | MDA-MB-435 35.2 µM | MDA-N 29.2 µM | Malme-3M 13 µM | NCI-H23 34.8 µM | NCI-H460 41.9 µM | OVCAR-3 > 100 µM | OVCAR-4 75 µM | SF-539 67.5 µM | SK-MEL-28 37.8 µM | SK-OV-3 > 100 µM | TK-10 > 100 µM | UACC-62 44.7 µM

COc1ccc2cc(/C=N\NC(=O)Nc3ccc([N+](=O)[O-])cc3)ccc2c1
inactive: BT-549 12.7 µM | CAKI-1 13.5 µM | COLO 205 13.1 µM | EKVX 14 µM | HOP-62 14.8 µM | KM12 11.3 µM | MCF7 14.4 µM | MDA-MB-231 13.9 µM | MDA-MB-435 14.1 µM | MDA-N 13 µM | Malme-3M 12.3 µM | NCI-H23 11.4 µM | NCI-H460 12.4 µM | OVCAR-3 18.4 µM | OVCAR-4 5.04 µM | SF-539 8.24 µM | SK-MEL-28 14.6 µM | SK-OV-3 11.9 µM | TK-10 7.96 µM | UACC-62 13.8 µM

Nc1nc(=O)c2cc(NCc3ccc(C(=O)NC(CCC(=O)O)C(=O)O)cc3)ccc2[nH]1 (stereo not given)
inactive: BT-549 > 100 µM | CAKI-1 34.4 µM | COLO 205 > 100 µM | EKVX > 100 µM | HOP-62 > 100 µM | KM12 > 100 µM | MCF7 6.56 µM | MDA-MB-231 > 100 µM | MDA-MB-435 > 100 µM | MDA-N > 100 µM | Malme-3M > 100 µM | NCI-H23 > 100 µM | NCI-H460 50 µM | OVCAR-3 > 100 µM | OVCAR-4 > 100 µM | SF-539 6.65 µM | SK-MEL-28 > 100 µM | SK-OV-3 > 100 µM | TK-10 > 100 µM | UACC-62 45.9 µM

Source: ChEMBL document CHEMBL1201862, “PubChem BioAssay data set” (2004)
